Assay results published in patent US20240123079A1 (Seagen Inc., priority 2021, published 2024).

What was measured:
L540cy = test: Cancer cell direct cytotoxicity assay (CellTiter-Glo), L540cy; type: cell-based; details: Homo sapiens, 96 h, free compound, read-out: Compound X50
Description: Bystander activity of ADCs was evaluated using Renca cancer cells and THP1-Dual™ cells (InvivoGen) which contain an IRF-Lucia luciferase reporter. Cells were cultured in RPMI-1640 (Gibco) with 10% heat-inactivated fetal bovine serum, Pen-Strep (100 U/ml-100 μg/ml, Gibco), HEPES (10 mM, Gibco), sodium pyruvate (1 mM, Gibco), MEM non-essential amino acids (1×, Gibco), GlutaMAX (1×, Gibco), and beta-mercaptoethanol (55 μM, Gibco). Renca cells were plated in a 96-well flat bottom tissue culture-treated clear polystyrene plate (Corning Costar #3596) at 50,000 cells per well in 100 μL. On the day following the initial plating, 50,000 THP1-Dual™ cells were added to each well with the indicated concentration of ADC in a total volume of 200 μL. Supernatant was harvested at 48 hours post addition of the THP1-Dual™ cells. To measure Lucia reporter signal, 10 μL of supernatant was combined with 40 μL of QUANTI-Luc™ Luminescence assay reagent (Invivogen PN: rep-qlc1) in a 96-well clear flat bottom tissue culture-treated black polystyrene plate (Corning Costar PN: 3603) and read on a Perkin Elmer Envision plate reader. In some experiments, HEK 293T cells engineered to express a murine protein typically expressed by immune cells (target antigen C— an immune cell antigen) were plated as above instead of Renca tumor cells. Cancer Cell Direct Cytotoxicity Assay
Cancer cells were counted and plated in 40 μL complete growth media in 384-well, white-walled tissue culture treated plates (Corning). Cell plates were incubated at 37° C. and with 5% CO2 overnight to allow the cells to equilibrate. Stock solutions containing ADCs or free drugs were serially diluted in RPMI-1640+20% fetal bovine serum (FBS). 10 μL of each concentration were then added to each cell plate in duplicate. Cells were then incubated at 37° C. and with 5% CO2 for 96 hours, upon which, the cell plates were removed from the incubator and allowed to cool to room temperature for 30 minutes prior to analysis. […] The luminescence of the samples was measured using an EnVision Multimode plate reader (Perkin Elmer, Waltham, MA). […]

[1] = In vivo cytokine assay, plasma of Renca tumor-bearing mice; parameters: species or system mouse; IFNg production in plasma / IL-1b production in plasma / IL-6 production in plasma / IL12p70 production in plasma / IP10 production in plasma / MIP1a production in plasma / MIP1b production in plasma / TNFa production in plasma: unit not given here
Description: Cytokines were measured in mouse plasma harvested at 3, 6, 24, or 48 hours after treatment with compounds or ADCs using a Milliplex MAP mouse cytokine/chemokine magnetic bead panel assay kit (MCYTOMAG-70k custom 11-plex kit: MCP1, MIP1α, MIP1β, TNFα, IFNγ, IL-10, IL-12p70, IL-6, IL-1β, IP10, RANTES) and analyzed using a Luminex™ MAGPIX™ Instrument System. Values that were outside of the standard curve range (<3.2 or […]) were excluded from calculation of the mean values.

CCn1nc(C)cc1C(=O)Nc1nc2cc(C(N)=O)cc(OC)c2n1C/C=C/Cn1c(NC(=O)c2cc(C)nn2CC)nc2cc(C(N)=O)cc(OCCCNC)c21 [Compound 12a]
IC50 (L540cy): 83 nM | IFNg production in plasma ([1]; 0.2 mg/kg, dose #1, 3 h): <3.2 | IL12p70 production in plasma ([1]; 0.2 mg/kg, dose #1, 3 h): <3.2 | IL-1b production in plasma ([1]; 0.2 mg/kg, dose #1, 3 h): 0.7 | IL-6 production in plasma ([1]; 0.2 mg/kg, dose #1, 3 h): 780.0 | IL-10 production in plasma ([1]; 0.2 mg/kg, dose #1, 3 h): 15.6 | IP10 production in plasma ([1]; 0.2 mg/kg, dose #1, 3 h): 1989.6 | MCP-1 production in plasma ([1]; 0.2 mg/kg, dose #1, 3 h): 333.3 | MIP1a production in plasma ([1]; 0.2 mg/kg, dose #1, 3 h): 10.3 | MIP1b production in plasma ([1]; 0.2 mg/kg, dose #1, 3 h): 727.2 | RANTES production in plasma ([1]; 0.2 mg/kg, dose #1, 3 h): <3.2 | TNFa production in plasma ([1]; 0.2 mg/kg, dose #1, 3 h): 9.1 | IFNg production in plasma ([1]; 0.2 mg/kg, dose #1, 6 h): 4.6 | IL12p70 production in plasma ([1]; 0.2 mg/kg, dose #1, 6 h): <3.2 | IL-1b production in plasma ([1]; 0.2 mg/kg, dose #1, 6 h): 0.7 | IL-6 production in plasma ([1]; 0.2 mg/kg, dose #1, 6 h): 266.1 | IL-10 production in plasma ([1]; 0.2 mg/kg, dose #1, 6 h): <3.2 | IP10 production in plasma ([1]; 0.2 mg/kg, dose #1, 6 h): 8985.4 | MCP-1 production in plasma ([1]; 0.2 mg/kg, dose #1, 6 h): 7790.8 | MIP1a production in plasma ([1]; 0.2 mg/kg, dose #1, 6 h): 101.9 | MIP1b production in plasma ([1]; 0.2 mg/kg, dose #1, 6 h): 670.7 | RANTES production in plasma ([1]; 0.2 mg/kg, dose #1, 6 h): 130.3 | TNFa production in plasma ([1]; 0.2 mg/kg, dose #1, 6 h): 8.1 | IFNg production in plasma ([1]; 0.2 mg/kg, dose #1, 24 h): <3.2 | IL12p70 production in plasma ([1]; 0.2 mg/kg, dose #1, 24 h): <3.2 | IL-1b production in plasma ([1]; 0.2 mg/kg, dose #1, 24 h): 3.2 | IL-6 production in plasma ([1]; 0.2 mg/kg, dose #1, 24 h): 4.1 | IL-10 production in plasma ([1]; 0.2 mg/kg, dose #1, 24 h): <3.2 | IP10 production in plasma ([1]; 0.2 mg/kg, dose #1, 24 h): 257.9 | MCP-1 production in plasma ([1]; 0.2 mg/kg, dose #1, 24 h): 53.0 | MIP1a production in plasma ([1]; 0.2 mg/kg, dose #1, 24 h): <3.2 | MIP1b production in plasma ([1]; 0.2 mg/kg, dose #1, 24 h): <3.2 | RANTES production in plasma ([1]; 0.2 mg/kg, dose #1, 24 h): 3.2 | TNFa production in plasma ([1]; 0.2 mg/kg, dose #1, 24 h): 3.2 | IFNg production in plasma ([1]; 0.2 mg/kg, dose #1, 48 h): <3.2 | IL12p70 production in plasma ([1]; 0.2 mg/kg, dose #1, 48 h): <3.2 | IL-1b production in plasma ([1]; 0.2 mg/kg, dose #1, 48 h): 0.7 | IL-6 production in plasma ([1]; 0.2 mg/kg, dose #1, 48 h): 5.6 | IL-10 production in plasma ([1]; 0.2 mg/kg, dose #1, 48 h): <3.2 | IP10 production in plasma ([1]; 0.2 mg/kg, dose #1, 48 h): 172.8 | MCP-1 production in plasma ([1]; 0.2 mg/kg, dose #1, 48 h): 56.8 | MIP1a production in plasma ([1]; 0.2 mg/kg, dose #1, 48 h): 10.3 | MIP1b production in plasma ([1]; 0.2 mg/kg, dose #1, 48 h): <3.2 | RANTES production in plasma ([1]; 0.2 mg/kg, dose #1, 48 h): <3.2 | TNFa production in plasma ([1]; 0.2 mg/kg, dose #1, 48 h): 4.3 | IFNg production in plasma ([1]; 0.2 mg/kg, dose #2, 6 h): 16.5 | IL12p70 production in plasma ([1]; 0.2 mg/kg, dose #2, 6 h): <3.2 | IL-1b production in plasma ([1]; 0.2 mg/kg, dose #2, 6 h): 2.7 | IL-6 production in plasma ([1]; 0.2 mg/kg, dose #2, 6 h): 410.9 | IL-10 production in plasma ([1]; 0.2 mg/kg, dose #2, 6 h): 1.2 | IP10 production in plasma ([1]; 0.2 mg/kg, dose #2, 6 h): >10000 | MCP-1 production in plasma ([1]; 0.2 mg/kg, dose #2, 6 h): 5244.6 | MIP1a production in plasma ([1]; 0.2 mg/kg, dose #2, 6 h): 104.9 | MIP1b production in plasma ([1]; 0.2 mg/kg, dose #2, 6 h): 718.6 | RANTES production in plasma ([1]; 0.2 mg/kg, dose #2, 6 h): 133.8 | TNFa production in plasma ([1]; 0.2 mg/kg, dose #2, 6 h): 10.0 | IFNg production in plasma ([1]; 0.6 mg/kg, dose #1, 3 h): <3.2 | IL12p70 production in plasma ([1]; 0.6 mg/kg, dose #1, 3 h): <3.2 | IL-1b production in plasma ([1]; 0.6 mg/kg, dose #1, 3 h): 0.7 | IL-6 production in plasma ([1]; 0.6 mg/kg, dose #1, 3 h): 1899.7 | IL-10 production in plasma ([1]; 0.6 mg/kg, dose #1, 3 h): 30.4 | IP10 production in plasma ([1]; 0.6 mg/kg, dose #1, 3 h): 4826.2 | MCP-1 production in plasma ([1]; 0.6 mg/kg, dose #1, 3 h): 1547.8 | MIP1a production in plasma ([1]; 0.6 mg/kg, dose #1, 3 h): 251.5 | MIP1b production in plasma ([1]; 0.6 mg/kg, dose #1, 3 h): 2471.0 | RANTES production in plasma ([1]; 0.6 mg/kg, dose #1, 3 h): 20.1 | TNFa production in plasma ([1]; 0.6 mg/kg, dose #1, 3 h): 21.0 | IFNg production in plasma ([1]; 0.6 mg/kg, dose #1, 6 h): 18.3 | IL12p70 production in plasma ([1]; 0.6 mg/kg, dose #1, 6 h): 3.1 | IL-1b production in plasma ([1]; 0.6 mg/kg, dose #1, 6 h): 5.7 | IL-6 production in plasma ([1]; 0.6 mg/kg, dose #1, 6 h): 424.0 | IL-10 production in plasma ([1]; 0.6 mg/kg, dose #1, 6 h): 3.8 | IP10 production in plasma ([1]; 0.6 mg/kg, dose #1, 6 h): 8828.3 | MCP-1 production in plasma ([1]; 0.6 mg/kg, dose #1, 6 h): 12898.6 | MIP1a production in plasma ([1]; 0.6 mg/kg, dose #1, 6 h): 137.2 | MIP1b production in plasma ([1]; 0.6 mg/kg, dose #1, 6 h): 1050.0 | RANTES production in plasma ([1]; 0.6 mg/kg, dose #1, 6 h): 255.0 | TNFa production in plasma ([1]; 0.6 mg/kg, dose #1, 6 h): 15.6 | IFNg production in plasma ([1]; 0.6 mg/kg, dose #1, 24 h): <3.2 | IL12p70 production in plasma ([1]; 0.6 mg/kg, dose #1, 24 h): <3.2 | IL-1b production in plasma ([1]; 0.6 mg/kg, dose #1, 24 h): 1.6 | IL-6 production in plasma ([1]; 0.6 mg/kg, dose #1, 24 h): 6.1 | IL-10 production in plasma ([1]; 0.6 mg/kg, dose #1, 24 h): <3.2
